In patent US9259402B2, “Compounds with (1 E, 6E)-1,7-bis-(3,4-dimethoxyphenyI)-4,4-disubstituted-hepta-1,6-diene-3,5-dione structural scaffold, their biological activity, and uses thereof” (AndroScience Corporation, priority 2007, dated 2016):
Substitutions are numbered along the chain they refer to. Like-named read-outs stand apart in the source and are kept apart here. Blank lines part the entries; values can stand above or below the compound they belong to.

Tests used:
[1] = target: T1, Androgen Receptor (AR) protein expression (Homo sapiens, UniProt P10275, H875Y, form not given); experiment: Western Blot analysis of AR protein expression in CWR22Rv1 cells; details: for IC50: read-out: Reduction of AR expression IC50 (μM) 24 h, Western blotting, 24 h post-incubation
T1 sequence (P10275 1-920 H875Y): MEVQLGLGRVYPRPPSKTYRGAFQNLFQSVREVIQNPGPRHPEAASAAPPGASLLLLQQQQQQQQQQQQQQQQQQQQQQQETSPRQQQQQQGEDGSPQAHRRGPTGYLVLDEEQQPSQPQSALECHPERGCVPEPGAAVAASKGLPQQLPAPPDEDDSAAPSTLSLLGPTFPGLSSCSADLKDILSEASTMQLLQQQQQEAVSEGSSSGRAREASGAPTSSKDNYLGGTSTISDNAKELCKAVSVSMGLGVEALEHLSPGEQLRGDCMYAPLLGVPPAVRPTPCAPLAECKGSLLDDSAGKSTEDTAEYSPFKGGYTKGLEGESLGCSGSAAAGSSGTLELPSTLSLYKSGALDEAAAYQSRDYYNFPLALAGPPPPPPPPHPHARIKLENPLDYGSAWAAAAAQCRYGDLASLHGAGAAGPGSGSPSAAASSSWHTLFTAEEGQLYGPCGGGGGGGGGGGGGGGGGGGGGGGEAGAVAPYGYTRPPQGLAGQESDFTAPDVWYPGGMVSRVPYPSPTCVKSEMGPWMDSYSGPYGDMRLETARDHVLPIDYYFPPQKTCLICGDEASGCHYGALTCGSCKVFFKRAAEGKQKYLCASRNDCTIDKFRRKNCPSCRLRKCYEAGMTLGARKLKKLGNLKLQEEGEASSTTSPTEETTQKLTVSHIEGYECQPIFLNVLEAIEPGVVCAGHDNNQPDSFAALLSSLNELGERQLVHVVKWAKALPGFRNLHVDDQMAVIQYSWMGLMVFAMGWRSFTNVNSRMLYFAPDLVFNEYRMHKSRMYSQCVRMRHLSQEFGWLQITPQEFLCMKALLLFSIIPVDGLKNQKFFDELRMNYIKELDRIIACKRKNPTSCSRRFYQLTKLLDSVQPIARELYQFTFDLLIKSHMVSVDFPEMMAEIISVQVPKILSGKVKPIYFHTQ

[2] = system: CWR22Rv1 cells (human prostate cancer); experiment: MTT cell growth assay, CWR22Rv1 cells; type: cell-based; details: 5 days, read-out: Inhibition of Tumor cells growth IC50
Procedure: The MTT cell proliferation assay was applied in the present invention to detect the capability of compounds to suppress or inhibit prostate cancer cells growth. […] Briefly, 1×10^3 LNCaP or CWR22Rv1 cells suspended in complete medium were plated into each well of a 96-well Microtest III tissue culture plate (Falcon, N.J.). Two days later, the medium was replaced with RPMI-1640 medium containing 10% charcoal/dextran-deprived FBS (hormone-deprived fetal bovine serum). Testing compounds were added to the medium at indicated concentrations with or without 1 nM DHT and cells were cultured for 5 days in an incubator (at 37° C.). MTT substrate solution (5 mg/ml in PBS) in 1/10 of volume was added to the cells in each well at 2 hours before harvesting. After 2 hour incubation, the plates were centrifuged (10 min at 1,000 rpm) and the supernatant from each well was carefully removed. A 100 μl of lysis buffer (50% dimethyl formamide, 5% sodium dodecyl sulphate, 0.35 M acetic acid, and 50 mM HCl) was added to each well to lyse the cells and dissolved tetrazolium in each well. The relative quantity of enzyme activity from each well was measured based on absorbance read at a wavelength of 450 nm using a Bio-RAD BenchMark microplate reader. Data derived from the MTT assay were also verified by the actual cell count and cell morphology on a separate plate set up in parallel.
For inhibition of tumor cell growth, in vitro, cells were growth in the presence of testing compounds for 5 days, and the cell growth was assayed by standard MTT assay.

[3] = Stability in human plasma; type: in vitro ADME; details: 37° C.
From the text: (§1) Also, at 24 hr where stability of JM49 was only 4%, while its derivative Compound 6 had improved to 79%. Similar improvements in stability (from 6-24 hr) were also observed in the conditions of rat plasma (Table 4) and human plasma (Table 5).

[4] = Stability in acidic condition (0.1 N HCl, 37° C.); type: physicochemical
From the text: as §1

AR protein = target: T2, AR protein (Homo sapiens, UniProt P10275, T878A); experiment: Cycloheximide chasing assay of AR degradation in LNCaP cells; type: cell-based; details: in the presence of cycloheximide (CHX)
T2 sequence (P10275 1-920 T878A): T1 sequence (P10275 1-920 H875Y) with Y875H, T878A
Procedure: AR protein “degradation” in prostate cancer cells was measured by using cycloheximide (a protein synthesis inhibitor) chasing assay method. Briefly, LNCaP cells were incubated with testing ASC compound at the designated concentrations for 24 hours. Subsequently, cycloheximide was added to the cells at a concentration of 15 μg/ml to block new protein synthesis. After incubation, cells were harvested at designated time periods and the resultant change in AR protein levels were analysed using Western Blot analysis as described above.

[5] = target: T3, Androgen Receptor (AR) protein expression (Homo sapiens, UniProt P10275, T878A); experiment: Western Blot analysis of AR protein expression in LNCaP cells; type: cell-based
T3 sequence (P10275 1-920 T878A): T1 sequence (P10275 1-920 H875Y) with Y875H, T878A

Stability in rat plasma = type: in vitro ADME; details: 37° C.
From the text: as §1

- melting point: 104 to 105 °C
SMILES: COc1ccc(/C=C/C(=O)C(F)(CC2CC2)C(=O)/C=C/c2ccc(OC)c(OC)c2)cc1OC [Compound 13]

SMILES: COc1ccc(C=CC(=O)C(CC2CCCC2)=C(O)C=Cc2ccc(OC)c(OC)c2)cc1OC [Compound 3]
- IC50 [1]: 2.8 µM

- IC50 ([2]; Homo sapiens, 120 h): > 7.5 µM
SMILES: COc1ccc(/C=C/C(=O)C(F)(CC(=O)N(C)C)C(=O)/C=C/c2ccc(OC)c(OC)c2)cc1OC [Compound 18]

- Concentration change (%) in human plasma ([3]; 6 h): 95%
- Concentration change (%) in human plasma ([3]; 24 h): 71%
- Concentration change (%) in human plasma ([3]; 48 h): 49%
- Concentration change (%) in acidic condition ([4]; 0 h): 100%
- Concentration change (%) in acidic condition ([4]; 1 h): 99%
- Concentration change (%) in acidic condition ([4]; 2 h): 99%
- Concentration change (%) in acidic condition ([4]; 4 h): 98%
- Concentration change (%) in acidic condition ([4]; 24 h): 81%
- Concentration change (%) in acidic condition ([4]; 48 h): 58%
SMILES: COc1ccc(/C=C/C(=O)C(C)(CC(=O)N(C)C)C(=O)/C=C/c2ccc(OC)c(OC)c2)cc1OC [Compound 7]

SMILES: CCCCC(F)(C(=O)C=Cc1ccc(OC)c(OC)c1)C(=O)C=Cc1ccc(OC)c(OC)c1 (centres unmarked) [Compound 19]
- IC50 [2]: 4.7 µM
- IC50 [1]: > 5 µM

- AR protein degradation (Western Blot, in words) (AR protein): enhances AR protein degradation
SMILES: COc1ccc(/C=C/C(=O)C2CC(c3ccc(OC)c(OC)c3)(C(C(=O)/C=C/c3ccc(OC)c(OC)c3)C(=O)/C=C/c3ccc(OC)c(OC)c3)CC2=O)cc1OC (centres unmarked) [ASC-JM5]

- melting point: 55 to 56 °C
SMILES: CCOC(=O)CCC(=O)C=Cc1ccc(O)c(OC)c1 [Monomer 6, 6-(4-Hydroxy-3-methoxy-phenyl)-4-oxo-hex-5-enoic acid ethyl ester]

- IC50 ([2]; Homo sapiens, 120 h): 2.4 µM
SMILES: COc1ccc(/C=C/C(=O)C(C)(CC2CC2)C(=O)/C=C/c2ccc(OC)c(OC)c2)cc1OC [Compound 1]

- melting point: 161 to 162 °C
SMILES: COc1ccc(/C=C/C(=O)C(C)(CC2CCC2)C(=O)/C=C/c2ccc(OC)c(OC)c2)cc1OC [Compound 2]

SMILES: COc1ccc(/C=C/C(=O)C(C(=O)/C=C/c2ccc(OC)c(OC)c2)=C(O)/C=C/c2ccc(OC)c(OC)c2)cc1OC [ASC-JM4]
- Reduction of AR expression (Western Blot, in words) [1]: capable of reducing endogenous AR expression
- Reduction of AR expression (Western Blot, in words) [5]: capable of reducing endogenous AR expression

- Concentration change (%) in human plasma ([3]; 0 h): 100%
- Concentration change (%) in human plasma ([3]; 6 h): 91%
- Concentration change (%) in human plasma ([3]; 24 h): 54%
- Concentration change (%) in human plasma ([3]; 48 h): 27%
- Concentration change (%) in acidic condition ([4]; 0 h): 100%
- Concentration change (%) in acidic condition ([4]; 2 h): 100%
- Concentration change (%) in acidic condition ([4]; 4 h): 99%
- Concentration change (%) in acidic condition ([4]; 24 h): 79%
- Concentration change (%) in acidic condition ([4]; 48 h): 56%
SMILES: CCN(CC)C(=O)CC(C)(C(=O)/C=C/c1ccc(OC)c(OC)c1)C(=O)/C=C/c1ccc(OC)c(OC)c1 [Compound 6]

- melting point: 98 to 100 °C
SMILES: COc1ccc(/C=C/C(=O)C(F)(CC2CCC2)C(=O)/C=C/c2ccc(OC)c(OC)c2)cc1OC [Compound 14]

- Concentration change (%) in human plasma ([3]; 0 h): 100%
- Concentration change (%) in human plasma ([3]; 1 h): 88%
- Concentration change (%) in human plasma ([3]; 2 h): 76%
- Concentration change (%) in human plasma ([3]; 6 h): 45%
- Concentration change (%) in human plasma ([3]; 24 h): 11%
- Concentration change (%) in human plasma ([3]; 48 h): 1%
- Concentration change (%) in rat plasma (Stability in rat plasma; 0 h): 100%
- Concentration change (%) in rat plasma (Stability in rat plasma; 1 h): 93%
- Concentration change (%) in rat plasma (Stability in rat plasma; 2 h): 88%
- Concentration change (%) in rat plasma (Stability in rat plasma; 6 h): 73%
- Concentration change (%) in rat plasma (Stability in rat plasma; 24 h): 27%
- Concentration change (%) in rat plasma (Stability in rat plasma; 48 h): 7%
- Concentration change (%) in acidic condition ([4]; 0 h): 100%
- Concentration change (%) in acidic condition ([4]; 1 h): 14%
- Concentration change (%) in acidic condition ([4]; 2 h): 8%
- Concentration change (%) in acidic condition ([4]; 6 h): 0%
- Concentration change (%) in acidic condition ([4]; 24 h): 0%
SMILES: COc1ccc(/C=C/C(=O)C(CC(=O)N(C)C)=C(O)/C=C/c2ccc(OC)c(OC)c2)cc1OC [JM77]

- melting point: 128 to 129 °C
- IC50 ([2]; Homo sapiens, 120 h): 4.6 µM
SMILES: COc1ccc(/C=C/C(=O)C(C)(CC2CCCCC2)C(=O)/C=C/c2ccc(OC)c(OC)c2)cc1OC [Compound 5]

SMILES: COc1ccc(C=CC(=O)C=C(O)C=Cc2ccc(OC)c(OC)c2)cc1OC [ASC-J9 ®, 1,7-Bis-(3,4-dimethoxy-phenyl)-5-hydroxy-hepta-1,4,6-trien-3-one, reference compound]
- AR protein degradation (Western Blot, in words) (AR protein): enhances AR protein degradation
